Holding throughout (type): in vivo
The test system of assay [1] is Echinochloa crus-galli (L.) Beauv. var. crusgall (Ec). Nature of the assay: Test for herbicidal effect by upland field soil treatment (Test Example 2), Ec. The procedure, abridged:
(§1)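 Echinochloa crus-galli and Setaria viridis were sown in upland field soil and covered, then the soil surface was sprayed with water-diluted wettable powder at 100 g active ingredient per 10 ares (100 liters per 10 ares). Plants were grown in a greenhouse and scored on a standard scale on day 21.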

The test system of assay [2] is Echinochloa oryzicola Vasing. (Eo). Nature of the assay: Test for herbicidal effect by paddy field soil treatment (Test Example 1). The following applies: application amount (active ingredient) 100 g/10 a, examined at the 21st day from the treatment, index per Table 40. Summed up: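 Eo seeds sown in puddled paddy soil under 3 cm water; next day a water-diluted wettable powder was dropped onto the water surface at 100 g active ingredient per 10 ares. Herbicidal effect scored on a standard scale 21 days after treatment, greenhouse-grown.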

Assay [3] concerns Setaria viridis (L.) Beauv. (Se). Nature of the assay: Test for herbicidal effect by upland field soil treatment (Test Example 2), Se. The procedure, abridged: as §1
Assay [4] deals with Echinochloa crus-galli (L.) Beauv. var. crusgalli (Ec). Nature of the assay: Test for herbicidal effect by upland foliage treatment (Test Example 3). The following applies: 100 g/10 a active ingredient, examined at 14th day. Summed up: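 Potted upland-soil Ec seedlings grown 2 weeks in greenhouse, then foliage-sprayed with water-diluted wettable powder at 100 L per 10 ares, giving 100 g active ingredient per 10 ares. Herbicidal effect scored on a graded standard 14 days after treatment.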

[5] abbreviates: application amount (active ingredient) 100 g/10 a, examined at the 21st day from the treatment, index per Table 40.
Where [6] appears, read: 100 g/10 a active ingredient, examined at 21st day.

Turning to `CCC1(C)CC(S(=O)(=O)Cc2ccccc2)=NO1` (centres unmarked) [Compound 1-188], the results for the “Herbicidal effect to Ec” value in assay [1] (setting [5]) and in assay [4] were 5 (A herbicidal effect or phytotoxicity of 90% or more) and 4 (A herbicidal effect or phytotoxicity of 70% to less than 90%), respectively. Besides, the “Herbicidal effect to Eo” value in assay [2] is recorded as 5 (A herbicidal effect or phytotoxicity of 90% or more). In addition, the “Herbicidal effect to Se” value in assay [3] (setting [5]) is reported as 5 (A herbicidal effect or phytotoxicity of 90% or more).

As to `COCc1ccccc1CS(=O)(=O)C1=NOC(C)(C)C1` [Compound 1-160], the “Herbicidal effect to Ec” value in assay [1] (setting [5]) and in assay [4] was 5 (A herbicidal effect or phytotoxicity of 90% or more) throughout. Besides, the “Herbicidal effect to Eo” value in assay [2] is recorded as 5 (A herbicidal effect or phytotoxicity of 90% or more). Also, the “Herbicidal effect to Se” value in assay [3] (setting [5]) is given as 5 (A herbicidal effect or phytotoxicity of 90% or more).

Consider `COc1cccc(Cl)c1CS(=O)(=O)C1=NOC(C)(C)C1` [Compound 1-563], for which the “Herbicidal effect to Ec” value is 5 (A herbicidal effect or phytotoxicity of 90% or more) in assay [1] (setting [6]) and 4 (A herbicidal effect or phytotoxicity of 70% to less than 90%) in assay [4]. Besides, in assay [2], the “Herbicidal effect to Eo” value is listed as 5 (A herbicidal effect or phytotoxicity of 90% or more). Also, in assay [3] (setting [6]), the “Herbicidal effect to Se” value was 5 (A herbicidal effect or phytotoxicity of 90% or more).

Take `CC1(C)CC(S(=O)(=O)Cc2cccc(OC(F)F)c2)=NO1` [Compound 1-56]: the “Herbicidal effect to Ec” value in assay [1] (setting [5]) and in assay [4] was 5 (A herbicidal effect or phytotoxicity of 90% or more) each time. Besides, the “Herbicidal effect to Eo” value in assay [2] is reported as 5 (A herbicidal effect or phytotoxicity of 90% or more). The “Herbicidal effect to Se” value in assay [3] (setting [5]) was 5 (A herbicidal effect or phytotoxicity of 90% or more).

With `CCOC(=O)c1ccccc1CS(=O)(=O)C1=NOC(C)(C)C1` [Compound 1-593], the entries for the “Herbicidal effect to Ec” value in assay [1] (setting [6]) and in assay [4] were 5 (A herbicidal effect or phytotoxicity of 90% or more) and 4 (A herbicidal effect or phytotoxicity of 70% to less than 90%), respectively. In assay [2], the “Herbicidal effect to Eo” value is 5 (A herbicidal effect or phytotoxicity of 90% or more). Also, in assay [3] (setting [6]), the “Herbicidal effect to Se” value is 4 (A herbicidal effect or phytotoxicity of 70% to less than 90%).

Consider `C#CCOc1cccc(C)c1CS(=O)(=O)C1=NOC(C)(C)C1` [Compound 1-607], for which the “Herbicidal effect to Ec” value in assay [1] (setting [6]) and in assay [4] was 5 (A herbicidal effect or phytotoxicity of 90% or more) in each case. The “Herbicidal effect to Eo” value in assay [2] was 5 (A herbicidal effect or phytotoxicity of 90% or more). Also, the “Herbicidal effect to Se” value in assay [3] (setting [6]) is 5 (A herbicidal effect or phytotoxicity of 90% or more).

As for `CC1(C)CC(S(=O)(=O)Cc2cc(Cl)cc(Cl)c2)=NO1` [Compound 1-492], the “Herbicidal effect to Ec” value in assay [1] (setting [5]) was 5 (A herbicidal effect or phytotoxicity of 90% or more); in assay [4], 4 (A herbicidal effect or phytotoxicity of 70% to less than 90%). Further, the “Herbicidal effect to Eo” value in assay [2] was 5 (A herbicidal effect or phytotoxicity of 90% or more). Also, the “Herbicidal effect to Se” value in assay [3] (setting [5]) was 5 (A herbicidal effect or phytotoxicity of 90% or more).

For the compound `CC(c1ccccc1)S(=O)(=O)C1=NOC(C)(C)C1` (centres unmarked) [Compound 1-581], the “Herbicidal effect to Ec” value in assay [1] (setting [6]) is recorded as 5 (A herbicidal effect or phytotoxicity of 90% or more); in assay [4], 4 (A herbicidal effect or phytotoxicity of 70% to less than 90%). For the same compound, in assay [2], the “Herbicidal effect to Eo” value is given as 5 (A herbicidal effect or phytotoxicity of 90% or more). In addition, the “Herbicidal effect to Se” value in assay [3] (setting [6]) is 5 (A herbicidal effect or phytotoxicity of 90% or more).

As to `CC1(C)CC(S(=O)(=O)Cc2c(Br)cccc2Br)=NO1` [Compound 1-554], the “Herbicidal effect to Ec” value in assay [1] (setting [6]) and in assay [4] was 5 (A herbicidal effect or phytotoxicity of 90% or more) throughout. The “Herbicidal effect to Eo” value in assay [2] is 5 (A herbicidal effect or phytotoxicity of 90% or more). For the same compound, in assay [3] (setting [6]), the “Herbicidal effect to Se” value is recorded as 5 (A herbicidal effect or phytotoxicity of 90% or more).

In the case of `CC1ON=C(S(=O)(=O)Cc2c(F)cccc2F)C1C` (centres unmarked) [Compound 1-496], the “Herbicidal effect to Ec” value in assay [1] (setting [5]) and in assay [4] was 5 (A herbicidal effect or phytotoxicity of 90% or more) in each case. Besides, in assay [2], the “Herbicidal effect to Eo” value was 5 (A herbicidal effect or phytotoxicity of 90% or more). For the same compound, the “Herbicidal effect to Se” value in assay [3] (setting [5]) was 4 (A herbicidal effect or phytotoxicity of 70% to less than 90%).

Take `CC1(C)CC(S(=O)(=O)Cc2c(F)cccc2I)=NO1` [Compound 1-548]: the “Herbicidal effect to Ec” value in assay [1] (setting [6]) and in assay [4] was 5 (A herbicidal effect or phytotoxicity of 90% or more) each time. The “Herbicidal effect to Eo” value in assay [2] is recorded as 5 (A herbicidal effect or phytotoxicity of 90% or more). Besides, the “Herbicidal effect to Se” value in assay [3] (setting [6]) was 5 (A herbicidal effect or phytotoxicity of 90% or more).

Consider `CC1(C)CC(S(=O)(=O)Cc2ccccc2[N+](=O)[O-])=NO1` [Compound 1-142], for which the “Herbicidal effect to Ec” value in assay [1] (setting [5]) is 5 (A herbicidal effect or phytotoxicity of 90% or more); in assay [4] it was 4 (A herbicidal effect or phytotoxicity of 70% to less than 90%). Also, the “Herbicidal effect to Eo” value in assay [2] is on record as 5 (A herbicidal effect or phytotoxicity of 90% or more). Further, in assay [3] (setting [5]), the “Herbicidal effect to Se” value is listed as 5 (A herbicidal effect or phytotoxicity of 90% or more).

Take `Cc1ccc(F)c(CS(=O)(=O)C2=NOC(C)(C)C2)c1F` [Compound 1-550]: the “Herbicidal effect to Ec” value in assay [1] (setting [6]) and in assay [4] was 5 (A herbicidal effect or phytotoxicity of 90% or more) throughout. The “Herbicidal effect to Eo” value in assay [2] was 5 (A herbicidal effect or phytotoxicity of 90% or more). The “Herbicidal effect to Se” value in assay [3] (setting [6]) is 5 (A herbicidal effect or phytotoxicity of 90% or more).

With `COc1ccccc1CS(=O)(=O)C1=NOC(C)(C)C1` [Compound 1-40], the “Herbicidal effect to Ec” value in assay [1] (setting [5]) and in assay [4] was 5 (A herbicidal effect or phytotoxicity of 90% or more) throughout. Moreover, the “Herbicidal effect to Eo” value in assay [2] is on record as 5 (A herbicidal effect or phytotoxicity of 90% or more). In assay [3] (setting [5]), the “Herbicidal effect to Se” value is given as 5 (A herbicidal effect or phytotoxicity of 90% or more).

As for `CC1(C)CC(S(=O)(=O)Cc2ccc(F)c(F)c2F)=NO1` [Compound 1-507], the “Herbicidal effect to Ec” value in assay [1] (setting [6]) is reported as 5 (A herbicidal effect or phytotoxicity of 90% or more); in assay [4], 4 (A herbicidal effect or phytotoxicity of 70% to less than 90%). Also, the “Herbicidal effect to Eo” value in assay [2] is 5 (A herbicidal effect or phytotoxicity of 90% or more). The “Herbicidal effect to Se” value in assay [3] (setting [6]) is reported as 5 (A herbicidal effect or phytotoxicity of 90% or more).

Regarding `CC(C)Oc1cccc(Cl)c1CS(=O)(=O)C1=NOC(C)(C)C1` [Compound 1-566], the “Herbicidal effect to Ec” value is 5 (A herbicidal effect or phytotoxicity of 90% or more) in assay [1] (setting [6]) and 4 (A herbicidal effect or phytotoxicity of 70% to less than 90%) in assay [4]. Moreover, the “Herbicidal effect to Eo” value in assay [2] is listed as 5 (A herbicidal effect or phytotoxicity of 90% or more). Further, the “Herbicidal effect to Se” value in assay [3] (setting [6]) is recorded as 5 (A herbicidal effect or phytotoxicity of 90% or more).

On to `CCc1cccc(CC)c1CS(=O)(=O)C1=NOC(C)(C)C1` [Compound 1-502], for which the “Herbicidal effect to Ec” value in assay [1] (setting [6]) and in assay [4] was 5 (A herbicidal effect or phytotoxicity of 90% or more) each time. In assay [2], the “Herbicidal effect to Eo” value is on record as 5 (A herbicidal effect or phytotoxicity of 90% or more). Besides, in assay [3] (setting [6]), the “Herbicidal effect to Se” value is listed as 5 (A herbicidal effect or phytotoxicity of 90% or more).

In the case of `CC1(C)CC(S(=O)(=O)Cc2cccc(Cl)c2Cl)=NO1` [Compound 1-487], the “Herbicidal effect to Ec” value in assay [1] (setting [5]) is on record as 5 (A herbicidal effect or phytotoxicity of 90% or more); in assay [4], 4 (A herbicidal effect or phytotoxicity of 70% to less than 90%). The “Herbicidal effect to Eo” value in assay [2] was 5 (A herbicidal effect or phytotoxicity of 90% or more). Besides, the “Herbicidal effect to Se” value in assay [3] (setting [5]) is on record as 5 (A herbicidal effect or phytotoxicity of 90% or more).

Turning to `CC1(C)CC(S(=O)(=O)Cc2cc(F)cc(C(F)(F)F)c2)=NO1` [Compound 1-542], the “Herbicidal effect to Ec” value in assay [1] (setting [6]) is given as 5 (A herbicidal effect or phytotoxicity of 90% or more); in assay [4] it was 4 (A herbicidal effect or phytotoxicity of 70% to less than 90%). Also, the “Herbicidal effect to Eo” value in assay [2] is given as 5 (A herbicidal effect or phytotoxicity of 90% or more). Besides, in assay [3] (setting [6]), the “Herbicidal effect to Se” value is 5 (A herbicidal effect or phytotoxicity of 90% or more).

As for `Cc1cc(C)c(CS(=O)(=O)C2=NOC(C)(C)C2)c(C)c1` [Compound 1-529], the “Herbicidal effect to Ec” value in assay [1] (setting [6]) and in assay [4] was 5 (A herbicidal effect or phytotoxicity of 90% or more) in each case. In addition, the “Herbicidal effect to Eo” value in assay [2] was 5 (A herbicidal effect or phytotoxicity of 90% or more). For the same compound, the “Herbicidal effect to Se” value in assay [3] (setting [6]) was 5 (A herbicidal effect or phytotoxicity of 90% or more).
